Here are results for 88 molecules from patent US20160297763A1, “Heteroaryl hydroxamic acid derivatives and their use in the treatment, amelioration or prevention of a viral disease” (priority 2011, published 2016).

Structures can show the parent of a compound that is named as a salt. Some results are limits rather than exact numbers.

Sequence of PB2 cap binding domain (CBD) (Q9Q0V1 318-483 limits assumed): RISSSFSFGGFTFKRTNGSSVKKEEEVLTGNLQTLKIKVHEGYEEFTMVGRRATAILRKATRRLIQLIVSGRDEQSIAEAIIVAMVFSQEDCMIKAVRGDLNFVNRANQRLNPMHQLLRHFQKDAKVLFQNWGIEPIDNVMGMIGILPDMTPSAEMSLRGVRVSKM

The first series addresses PB2 cap binding domain (CBD) (Influenza A virus, UniProt Q9Q0V1). As to the kind of experiment: biochemical. Also noted: species or system avian H5N1 influenza virus.
`Cc1c(-c2cnn(C)c2)sc2nc(N)[nH]c(=O)c12` [SAV-7603]: the affinity, expressed as Kd, was 42 µM.

`Cc1c(-c2ccccc2)sc2nc(NCCN(C)C)[nH]c(=O)c12` [SAV-7583] showed a Kd of 68 µM.

System in another series: not given
Assay: not given
As for `Cc1c(-c2cccc(Cl)c2F)sc2nc(N)[nH]c(=O)c12`, the melting point fell in the range of 330 to 350 °C.

With `O=C(c1ccc(N2CCCC2)cn1)N(Cc1ccccc1)OCc1ccccc1`, the melting point was in the range of 95 to 100 °C.

For `O=C(NO)c1cc(N2CCOCC2)ccn1`, the melting point is 215 to 220 °C (dec.).

`Cl.O=C(NO)c1cc(NS(=O)(=O)Cc2cccc(Cl)c2Cl)ccn1` returned a melting point of 210 to 218 °C.

Regarding `O=C(c1cc(N2CCC(N3CCCC3)CC2)ccn1)N(O)Cc1ccccc1`, the melting point is 135 to 140 °C.

Consider `O=C(c1cc(N2CCCC(F)(F)C2)ccn1)N(O)Cc1ccccc1`, for which the melting point is 140 to 145 °C.

In turn, `Cc1c(-c2ccccc2)sc2nc(N3CCOCC3)[nH]c(=O)c12` had a melting point of 300 to 320 °C.

Consider `Cc1c(-c2ccc(Cl)c(C(=O)N(C)C)c2)sc2nc(N)[nH]c(=O)c12`, for which the melting point was 300 to 320 °C.

Molecule `Cl.O=C(c1cc(N2CCC(F)(F)CC2)ccn1)N(O)Cc1ccccc1` yielded a melting point of 90 to 95 °C.

As for `Nc1nc2sc(-c3ccccc3)c(Cl)c2c(=O)[nH]1`, the melting point was over 350 °C.

In turn, `Cc1c(-c2cc(CN(C)C)ccc2F)sc2nc(N)[nH]c(=O)c12` came in with a melting point of 230 to 250 °C.

Molecule `CCONC(=O)c1ccc(-c2cccc(CN(C)Cc3ccccc3)c2)cn1.Cl` (hydrate or solvate) showed a melting point of 85 to 90 °C.

In turn, `CCONC(=O)c1cc(NCC2CCN(Cc3ccccc3)CC2)ccn1.Cl.Cl` (hydrate or solvate) came in with a melting point of 125 to 130 °C.

As to `O=C(c1cc(N2CCOCC2)ccn1)N(O)Cc1ccccc1`, the melting point fell in the range of 105 to 110 °C.

As for `CC(c1ccccc1)c1cc2c(=O)[nH]c(N)nc2s1` (stereo not shown), the melting point is 260 to 270 °C.

`Cl.O=C(NO)c1cc(NS(=O)(=O)Cc2ccc(Cl)cc2)ccn1`: the melting point fell in the range of 210 to 230 °C.

As for `Cc1cc(-c2sc3nc(N)[nH]c(=O)c3c2C)ccc1Cl`, the melting point is 330 to 350 °C.

In turn, `CN(C)S(=O)(=O)c1cccc(-c2ccnc(C(=O)N(O)Cc3ccccc3)c2)c1` displayed a melting point of 110 to 115 °C.

As to `Cc1c(-c2ccc(Cl)nc2)sc2nc(N)[nH]c(=O)c12`, the melting point was 230 to 250 °C.

The molecule `Cc1c(-c2ccc(F)nc2F)sc2nc(N)[nH]c(=O)c12` registered a melting point of 330 to 335 °C.

With `O=C(c1cc(C2=CCNCC2)ccn1)N(O)Cc1ccccc1` (as salt: hydrochloride), the melting point was 140 to 150 °C.

The molecule `CN(C)CCNC(=O)c1cccc(-c2ccnc(C(=O)N(O)Cc3ccccc3)c2)c1` had a melting point of 65 to 70 °C.

As for `Cc1c(Cc2ccccc2)sc2nc(N)[nH]c(=O)c12`, the melting point lay in the range of 292 to 294 °C.

As to `Cl.O=C(NO)c1cc(NS(=O)(=O)C(c2ccccc2)c2ccccc2)ccn1`, the melting point lay in the range of 162 to 168 °C.

Molecule `Cl.O=C(c1cc(NS(=O)(=O)Cc2cccc(Cl)c2)ccn1)N(O)Cc1ccccc1` gave a melting point of 115 to 125 °C.

`Cc1c(-c2cccc(F)c2)sc2nc(N)[nH]c(=O)c12` gave a melting point of 310 to 330 °C.

As for `Cl.O=C(NO)c1cc(NS(=O)(=O)Cc2cccc(Cl)c2)ccn1`, the melting point is 198 to 204 °C.

Take `Cc1c(-c2cccc(C#N)c2F)sc2nc(N)[nH]c(=O)c12`: the melting point lay in the range of 350 to 370 °C.

On to `C[C@@H]1CN(c2ccnc(C(=O)N(O)Cc3ccccc3)c2)C[C@H](C)O1`, for which the melting point fell in the range of 180 to 185 °C.

Take `O=C(c1ccc(-c2ccccc2)cn1)N(O)Cc1ccccc1`: the melting point fell in the range of 145 to 150 °C.

`Cl.O=C(NO)c1cc(NS(=O)(=O)Cc2ccc(Cl)c(Cl)c2)ccn1`: the melting point is 228 to 238 °C.

`O=C(c1ccc(N2CCCCC2)cn1)N(O)Cc1ccccc1` showed a melting point of 110 to 115 °C.

Molecule `CCONC(=O)c1ccc(-c2ccccc2)cn1` came in with a melting point of 100 to 105 °C.

In turn, `O=C(NOCc1ccccc1)c1cc2ccccc2cn1` yielded a melting point of 85 to 90 °C.

As to `COc1cc(-c2sc3nc(N)[nH]c(=O)c3c2C)ccc1Cl`, the melting point is 312 to 322 °C.

In the case of `O=C(c1ccc(N2CCCC2)cn1)N(O)Cc1ccccc1`, the melting point was 115 to 120 °C.

`Cl.O=C(NO)c1cc(NS(=O)(=O)Cc2cc(Cl)cc(Cl)c2)ccn1` gave a melting point of 203 to 205 °C.

`CC(C)(C)OC(=O)N1CC=C(c2ccnc(C(=O)N(O)Cc3ccccc3)c2)CC1`: the melting point turned out to be 125 °C.

`Cc1cccc(-c2ccc(C(=O)N(O)Cc3ccccc3)nc2)c1` returned a melting point of 139 to 140 °C.

The molecule `CC(C)c1cccc(-c2ccc(C(=O)N(O)CCc3ccccc3)nc2)c1` registered a melting point of 110 to 115 °C.

Molecule `O=C(c1cc(-c2ccccc2)ccn1)N(O)Cc1ccccc1` came in with a melting point of 160 to 165 °C.

In turn, `Cc1c(-c2cc(C#N)ccc2F)sc2nc(N)[nH]c(=O)c12` had a melting point of 332 to 336 °C.

On to `Nc1nc2sc(Cc3ccccc3)cc2c(=O)[nH]1`, for which the melting point was 294 to 296 °C.

Molecule `Cc1c(-c2cccc(C#N)c2)sc2nc(N)[nH]c(=O)c12` yielded a melting point of over 350 °C.

`CN1CC=C(c2ccnc(C(=O)N(O)Cc3ccccc3)c2)CC1` had a melting point of 135 to 155 °C.

In the case of `Cc1c(-c2cc(C(F)(F)F)cc(C(F)(F)F)c2)sc2nc(N)[nH]c(=O)c12`, the melting point was in the range of 344 to 347 °C.

In turn, `Cc1c(-c2ccc(Cl)c(C(F)(F)F)c2)sc2nc(N)[nH]c(=O)c12` returned a melting point of over 350 °C.

`O=C(c1cc(-c2ccccc2)ccn1)N(O)Cc1ccc(F)cc1` registered a melting point of 135 to 140 °C.

In the case of `CN(O)C(=O)c1cc2ccccc2cn1`, the melting point is 110 to 115 °C.

`CCONC(=O)c1cc(NCc2cccc(OCc3ccccc3)c2)ccn1.Cl` showed a melting point of 70 to 75 °C.

As to `O=C(NO)c1ccc(-c2ccccc2)cn1`, the melting point is 175 to 180 °C.

With `Cl.O=C(c1cc(NS(=O)(=O)Cc2cccc(F)c2)ccn1)N(O)Cc1ccccc1`, the melting point lay within 111 to 113 °C.

In turn, `Cc1c(-c2ccccc2)sc2nc(N)[nH]c(=O)c12` came in with a melting point of 356 to 358 °C.

In turn, `Cc1c(-c2cc(C#N)ccc2Cl)sc2nc(N)[nH]c(=O)c12` gave a melting point of over 350 °C.

`Cc1c(-c2ccccc2)sc2nc(NCCN(C)C)[nH]c(=O)c12` showed a melting point of 199 to 201 °C.

Molecule `O=C(c1cc(NS(=O)(=O)Cc2ccccc2)ccn1)N(O)Cc1ccccc1` returned a melting point of 190 to 195 °C.

For the molecule `CC(C)c1cccc(-c2ccc(C(=O)NO)nc2)c1`, the melting point lay in the range of 130 to 135 °C.

In turn, `O=C(c1cc2ccccc2cn1)N(O)CCc1ccccc1` came in with a melting point of 90 to 95 °C.

Take `Cc1c(-c2ccccc2)sc2nc(NCCNC(=O)CCCN3CCN(C)CC3)[nH]c(=O)c12`: the melting point lay within 192 to 196 °C.

On to `Cl.O=C(c1cc(N2CCOCC2)ccn1)N(O)Cc1ccccc1`, for which the melting point fell in the range of 185 to 190 °C.

In turn, `Cc1c(C2=CCNCC2)sc2nc(N)[nH]c(=O)c12` had a melting point of 290 to 310 °C.

As for `O=C(NO)c1ccc(N2CCCC2)cn1`, the melting point lay within 220 to 225 °C.

As for `Cl.O=C(NO)c1cc(NS(=O)(=O)Cc2cccc(Br)c2)ccn1`, the melting point is 197 to 205 °C.

The molecule `Cc1c(-c2ccnc(Cl)c2F)sc2nc(N)[nH]c(=O)c12` gave a melting point of 330 to 350 °C.

In turn, `Cc1c(-c2ccc(Cl)cc2F)sc2nc(N)[nH]c(=O)c12` had a melting point of 320 to 340 °C.

As to `Cc1c(-c2ccc(F)cc2)sc2nc(N)[nH]c(=O)c12`, the melting point was in the range of 325 to 335 °C.

In turn, `Cc1c(-c2ccc(F)c(C#N)c2F)sc2nc(N)[nH]c(=O)c12` came in with a melting point of 360 to 380 °C.

As to `Cc1c(-c2cccnc2)sc2nc(N)[nH]c(=O)c12`, the melting point was in the range of 280 to 290 °C.

Take `O=C(c1cc2ccccc2cn1)N(O)Cc1ccccc1`: the melting point was 120 to 125 °C.

In turn, `CCON(C)C(=O)c1ccc(-c2ccccc2)cn1` showed a melting point of 70 to 75 °C.

`CC(C)c1cc2c(=O)[nH]c(N)nc2s1` returned a melting point of 347 to 349 °C.

`Cc1cccc(C(=O)NOCc2ccccc2)n1`: the melting point was in the range of 75 to 80 °C.

On to `Cl.O=C(NO)c1cc(NS(=O)(=O)Cc2cccc3cccnc23)ccn1`, for which the melting point was in the range of 220 to 228 °C.

Molecule `Cc1c(-c2ccccc2Cl)sc2nc(N)[nH]c(=O)c12` displayed a melting point of 334 to 336 °C.

Turning to `Cl.O=C(NO)c1cc(N2CCCCC2)ccn1` (hydrate or solvate), the melting point was in the range of 200 to 202 °C.

Turning to `Cc1c(-c2ccccc2)sc2nc(NC3CCCCC3)[nH]c(=O)c12`, the melting point lay within 265 to 270 °C.

As for `O=C(c1cc(-c2cccc(CO)c2)ccn1)N(O)Cc1ccccc1`, the melting point fell in the range of 150 to 155 °C.

In turn, `Cc1c(-c2ccc(Cl)c(O)c2)sc2nc(N)[nH]c(=O)c12` displayed a melting point of over 350 °C.

For `Cc1c(-c2c(F)ccc(Cl)c2F)sc2nc(N)[nH]c(=O)c12`, the melting point lay in the range of 330 to 350 °C.

Molecule `Cc1c(-c2ccccc2)sc2nc(Nc3ccccc3)[nH]c(=O)c12` came in with a melting point of 270 to 290 °C.

In turn, `Cl.O=C(c1cc(NS(=O)(=O)Cc2ccc(F)cc2)ccn1)N(O)Cc1ccccc1` returned a melting point of 178 to 183 °C.

As to `Cl.O=C(c1cc(NS(=O)(=O)Cc2cc(Cl)cc(Cl)c2)ccn1)N(O)Cc1ccccc1`, the melting point was 189 to 194 °C.

`CCONC(=O)c1cc(NCCCc2cccc(Cl)c2)ccn1` gave a melting point of 100 to 105 °C.

Turning to `Cc1sc2nc(N)[nH]c(=O)c2c1-c1ccc(F)cc1`, the melting point lay within 360 to 362 °C.

In the case of `Cc1c(-c2ccc(F)cc2F)sc2nc(N)[nH]c(=O)c12`, the melting point was in the range of 330 to 350 °C.

As for `Cc1c(Cc2ccc(Cl)cc2)sc2nc(N)[nH]c(=O)c12`, the melting point lay in the range of 300 to 320 °C.
